Test results as given in patent publication US9994554B2, “Barbiturate and thiobarbiturate compounds for use in cancer therapy” (NUHOPE, LLC, priority 2011, dated 2018).

What was measured:
MCF10A = assay: Cytotoxicity, MCF10A; format: cell-based, human; conditions: immortalized, non-transformed mammary epithelial cell line
Experimental: Human glioma cells were ordered from American Type Culture Collection (ATCC, Manassas, Va.), and maintained in DMEM with 4×10^−3M L-glutamine, 100 U/ml penicillin, 100 μg/ml streptomycin, and 10% fetal bovine serum (FBS). All experiments were performed at 37° C. in 5% CO2 atmosphere under cell culture conditions. Prior to γ-radiation or exposure to chemotherapeutic agents, the glioma cells were plated at a density of 156 to 8,000 cells per well in 96 well plates to account for differences in growth rates, and to obtain similar cell densities for the experimental manipulations, and cultured overnight. Then cells received different dosages of γ-radiation from a ^60Co source GammaCell 220 (Nordion International Inc, Ontario, Canada) or chemotherapeutic agents for another 2-6 days. Cell cytotoxicity assay was determined by MTS [3-(4,5-dimethylthiazol-2-yl)-5-(3-carboxymethoxyphenyl)-2-(4-sulfophenyl)-2H-tetrazolium, inner salt] Cell Proliferation Assay (Promega, Madison, Wis.) or sulforhodamine B (SRB) assay at the end of the exposure period (47, 48).

topoisomerase IIα [1] = target: T1, topoisomerase IIα (Homo sapiens, UniProt P11388); assay: Supercoiled pHOT1 DNA relaxation assay; format: biochemical
CCF-STTG1 cells = assay: FITC-Annexin V/propidium iodide apoptosis assay; format: cell-based, human
Experimental: An FITC-labeled Annexin V/propidium iodide apoptosis assay kit (Molecular Probes) was used to determine whether CC-I induces apoptosis in an astrocytoma cell line. […] The percentage of apoptotic cells by the CC-I treatment in CCF-STTG1 cells is from 10.9±0.16% at 5 pig/ml ([…]) to 48.7±0.33% at 10 μg/ml (36.2 μM). By comparison, the positive control, actinomycin D, induced apoptosis in 47.8±0.04% of the cells at 0.05 μg/ml (39.8 nM).

[2] = test system: Human Astrocyte (Normal cells); assay: Cytotoxicity, normal human astrocytes; format: cell-based
Experimental: The human astrocyte cells were cultured from brains of deceased amyotrophic lateral sclerosis (ALS) patients (Uniform Anatomic Gift Act of 1987). The cerebrum was isolated from the other brain regions and meninges and placed in calcium and magnesium-free Hank's buffered salt solution (CMF-HBSS). The cerebrum was diced, incubated with trypsin/EDTA (Gibco BRL, Grand Island, N.Y.) and triturated with DNase. Tissue was passed through a 135 μm Nitex screen (SEFAR America, Depew, N.Y.), washed twice with CMF-HBSS, re-suspended in media (DMEM/10% FBS, 7.5 mM glucose, 4 mM L-glutamine, 1,000 U/mL penicillin, […], 2.5 μg/mL amphotericin B), centrifuged and passed through two sets of 35 μm Nitex screens. Dissociated cells was plated in poly-D-lysine pre-coated 175 cm^2 flasks. The mixed glial cultures were grown for 14 days, and then shaken to dislodge microglia cells and oligodendrocytes that were discarded. The pure astrocytes were attached to the bottom of the flask.

topoisomerase IIα [3] = target: T1, topoisomerase IIα; assay: kDNA decatenation assay; format: biochemical
From the text: To assess whether CC-I is a human topoisomerase IIα inhibitor, we determined the ability of CC-I to inhibit topoisomerase IIα activity using a kDNA decatenation assay.

[4] = test system: C282Y HFE variant expressing neuroblastoma SH-SY5Y cells; assay: SCID mouse subcutaneous neuroblastoma tumor model; conditions: 25 mg/kg i.p. once a week for 7 weeks
Experimental: To determine the effect of CC-I on neuroblastoma, an in vivo subcutaneous tumor model in SCID mice was examined. One month old, female SCID mice were injected subcutaneously in the flank region with a Temodar®- and radiation-resistant C282Y HFE variant expressing neuroblastoma SH-SY5Y cells. After the tumor attained a volume of 32 mm^3, CC-I (25 mg/kg) was injected intraperitoneally once a week for 7 weeks.

C282Y/SH-SY5Y = assay: cells; format: cell-based; conditions: C282Y HFE transfected human neuroblastoma SH-SY5Y
Experimental: (§1) Human neuroblastoma cell lines were cultured in Dulbecco's Modified Eagle Medium (DMEM)/F12 media. Human glioma cells were ordered from American Type Culture Collection (ATCC, Manassas, Va.), and maintained in DMEM with 4×10^−3M L-glutamine, 100 U/ml penicillin, 100 μg/ml streptomycin, and 10% fetal bovine serum (FBS). All experiments were performed at 37° C. in 5% CO2 atmosphere under cell culture conditions. Prior to γ-radiation or exposure to chemotherapeutic agents, the glioma cells were plated at a density of 156 to 8,000 cells per well in 96 well plates to account for differences in growth rates, and to obtain similar cell densities for the experimental manipulations, and cultured overnight. […] Cell cytotoxicity assay was determined by MTS [3-(4,5-dimethylthiazol-2-yl)-5-(3-carboxymethoxyphenyl)-2-(4-sulfophenyl)-2H-tetrazolium, inner salt] Cell Proliferation Assay (Promega, Madison, Wis.) or sulforhodamine B (SRB) assay at the end of the exposure period (47, 48).

MCF7 = assay: Cytotoxicity, MCF7; format: cell-based; conditions: human breast adenocarcinoma cell line
Experimental: as §1

T1 sequence (P11388 whole entry): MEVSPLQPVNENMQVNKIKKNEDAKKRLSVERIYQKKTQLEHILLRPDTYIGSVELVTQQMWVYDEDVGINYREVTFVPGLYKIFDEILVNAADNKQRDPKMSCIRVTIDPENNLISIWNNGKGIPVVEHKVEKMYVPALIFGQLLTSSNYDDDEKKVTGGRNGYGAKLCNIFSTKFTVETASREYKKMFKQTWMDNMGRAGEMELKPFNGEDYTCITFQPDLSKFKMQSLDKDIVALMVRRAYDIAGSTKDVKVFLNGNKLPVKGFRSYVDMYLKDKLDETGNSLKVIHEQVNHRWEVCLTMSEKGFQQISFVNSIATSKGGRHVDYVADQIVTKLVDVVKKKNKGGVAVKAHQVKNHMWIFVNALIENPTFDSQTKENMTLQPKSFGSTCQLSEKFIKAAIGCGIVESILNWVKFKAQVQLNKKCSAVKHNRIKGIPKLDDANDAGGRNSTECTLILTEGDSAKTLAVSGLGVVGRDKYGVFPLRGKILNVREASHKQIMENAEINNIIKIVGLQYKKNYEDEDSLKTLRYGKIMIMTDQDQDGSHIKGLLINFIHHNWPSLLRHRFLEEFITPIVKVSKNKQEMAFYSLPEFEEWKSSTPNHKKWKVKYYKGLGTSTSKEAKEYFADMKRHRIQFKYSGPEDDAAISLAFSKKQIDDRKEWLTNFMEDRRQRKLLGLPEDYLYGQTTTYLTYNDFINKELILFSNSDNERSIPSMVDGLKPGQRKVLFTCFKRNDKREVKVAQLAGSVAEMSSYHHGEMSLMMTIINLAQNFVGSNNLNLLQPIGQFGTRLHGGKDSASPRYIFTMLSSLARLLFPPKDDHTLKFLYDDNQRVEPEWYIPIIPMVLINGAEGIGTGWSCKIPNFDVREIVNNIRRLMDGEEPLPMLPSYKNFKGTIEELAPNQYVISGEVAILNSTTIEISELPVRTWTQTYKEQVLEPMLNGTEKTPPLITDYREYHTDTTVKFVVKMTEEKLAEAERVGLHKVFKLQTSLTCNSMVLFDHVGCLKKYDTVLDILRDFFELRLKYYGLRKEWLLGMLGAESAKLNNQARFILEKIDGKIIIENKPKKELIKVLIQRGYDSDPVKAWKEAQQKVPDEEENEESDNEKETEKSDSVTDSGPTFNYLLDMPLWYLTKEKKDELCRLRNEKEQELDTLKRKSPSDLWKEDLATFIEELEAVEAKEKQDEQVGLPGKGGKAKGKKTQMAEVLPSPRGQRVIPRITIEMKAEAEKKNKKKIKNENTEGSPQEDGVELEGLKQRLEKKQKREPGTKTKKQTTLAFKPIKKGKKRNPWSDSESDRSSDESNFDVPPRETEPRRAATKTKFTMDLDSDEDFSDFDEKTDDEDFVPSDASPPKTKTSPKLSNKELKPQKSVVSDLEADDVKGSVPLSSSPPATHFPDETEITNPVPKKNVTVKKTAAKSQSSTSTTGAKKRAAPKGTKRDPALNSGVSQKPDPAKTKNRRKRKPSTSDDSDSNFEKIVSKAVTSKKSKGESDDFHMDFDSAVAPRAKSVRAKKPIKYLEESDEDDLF

## CCN1C(=O)C(=C/C=C/c2ccco2)C(=O)NC1=S [CC-I]
MCF10A
  IC50: 6.5 µM
Topoisomerase IIα [1]
  concentration completely inhibiting topoisomerase IIα catalyzed pHOT1 relaxation: greater than 3 μg/ml
  most effective concentration on topoisomerase IIα activity: 3 µg/mL
CCF-STTG1 cells; CCF-STTG1, at 10 μg/ml (36.2 μM)
  percentage of apoptotic cells: 48.7±0.33%
CCF-STTG1 cells; CCF-STTG1, at 5 pig/ml (18.1 µM)
  percentage of apoptotic cells: 10.9±0.16%
[2]; at concentrations toxic to Temodar-resistant glioma cells
  toxicity to normal human astrocytes: not toxic
[2]; normal cells
  IC50: 16.4 µM
Topoisomerase IIα [3]
  concentration completely inhibiting topoisomerase IIα catalyzed kDNA decatenation: greater than 6 μg/ml
[4]
  body weight: unaffected
  liver or kidney toxicity: No liver or kidney toxicity
[4]; SCID mice
  tumor growth: completely inhibited tumor growth
C282Y/SH-SY5Y
  IC50: 1.8 µM
MCF7
  IC50: 15.6 µM
